Source: patent publication US11091460B2, “Syk inhibitor and use method therefor” (CHIA TAI TIANQING PHARMACEUTICAL GROUP CO., LTD., priority 2017, dated 2021)

molecular target: T1, SYK kinase (Homo sapiens, UniProt P43405); assay: In vitro test of the inhibition effect on SYK kinase (HTRF); format: biochemical; details: tyrosine kinase 0.0156 ng/μL, substrate 0.2 uM, ATP 2 uM, 23° C. 1 hour, read-out: Inhibit SYK kinase IC50
T1 construct: purchased Invitrogen PV3857
Description: Experimental Example 1: In Vitro Test of the Inhibition Effect of the Example Compounds on SYK Kinase
Adenosine triphosphate concentration was controlled at 2 uM. • 4) Loaded with a Multidrop automatic dispenser, and a mixture of tyrosinase solution and tyrosine kinase-substrate-biotin/adenosine triphosphate was added in an amount of 5 ul per well, and incubated at 23° C. for 1 hour. • c) Detection phase: • 1) Added 13.33 mL of ethylenediaminetetraacetic acid solution to the Detection Buffer in the kit, added the specified amount of […] (Eu)-labeled antibody and streptavidin XL-665, and prepared the detection solution. • 2) Loaded with a Multidrop automatic dispenser, and 10 uL of the detection solution per well, incubated at 23° C. for 1 hour. It terminated the reaction of the enzyme and substrate mixture. • 3) Reading after centrifugation on a multi-function microplate reader, • d) Data Analysis: Analyzed the data with XL-Fit, and calculated the IC50 value of the compound.

SMILES | IC50 [nM]
Cn1c(=O)c(Nc2ccc(N3CCOCC3)cc2)nc2ccc(-c3csc(N)n3)cc21 [Example 59, 7-(2-Aminothiazol-4-yl)-1-methyl-3-((4-morpholinephenyl)amino)quinoxaline-2(1H)-one] | 46
C[C@@H]1COCCN1c1ccc(Nc2cc3c(F)c(-c4cc[nH]n4)ccc3n(C)c2=O)nc1 [Example 13, (R) 5-fluoro-1-methyl-3-((5-(3-methylmorpholine)pyridin-2-yl)amino)-6-(1H-pyrazol-3-yl)quinoline-2(1H)-one] | 923
Cn1c(=O)c(Nc2ccc(C(C)(O)C(F)(F)F)cn2)cc2c(F)c(-c3cc[nH]n3)ccc21 (single isomer, unassigned) [Example 24, 5-Fluoro-1-methyl-6-(1H-pyrazol-3-yl)-3-((5-(1,1,1-trifluoro-2-hydroxypropan-2-yl)pyridine-2-yl)amino)quinoline-2(1H)-one] | 12.3
Cn1c(=O)c(Nc2cccc(N3CCN(S(C)(=O)=O)CC3)c2)nc2ccc(-c3cn[nH]c3)cc21 [Example 40, 1-Methyl-3-((3-(4-(methylsulfonyl)piperazin-1-yl)phenyl)amino)-7-(1H-pyrazol-4-yl)quinoxaline-2(1H)-one] | 163
Cn1c(=O)c(Nc2ccc(N3CCOCC3)cc2)nc2ccc(-c3ncc[nH]3)cc21 [Example 30, 7-(1H-imidazol-2-yl)-1-methyl-3-((4-morpholinephenyl)amino)quinoxaline-2(1H)-one] | 461
Cn1c(=O)c(Nc2ccc(N3CCC(O)(C(F)(F)F)CC3)cn2)cc2cc(-c3cc[nH]n3)ccc21 [Example 5] | 58.4
Cc1[nH]ncc1-c1ccc2nc(Nc3ccc(N4CCOCC4)cc3)c(=O)n(C)c2c1 [Example 29, 1-Methyl-7-(5-methyl-1H-pyrazol-4-yl)-3-((4-morpholinephenyl)amino)quinoxaline-2(1H)-one] | 61
Cn1c(=O)c(Nc2ccc(C(C)(O)C(F)(F)F)cn2)cc2c(F)c(-c3cc[nH]n3)ccc21 (single isomer, unassigned) [Example 25, 5-Fluoro-1-methyl-6-(1H-pyrazol-3-yl)-3-((5-(1,1,1-trifluoro-2-hydroxypropan-2-yl)pyridine-2-yl)amino)quinoline-2(1H)-one] | 8.9
Cn1c(=O)c(Nc2ccc(N3CCOCC3)cc2)nc2cc(Cl)c(-c3cn[nH]c3)cc21 [Example 42, 6-Chloro-1-methyl-3-((4-morpholinephenyl)amino)-7-(1H-pyrazol-4-yl)quinoxaline-2(1H)-one] | 30
Cn1c(=O)c(Nc2ccc(N3CCOCC3)cc2)nc2ccc(-c3cnc(N)[nH]3)cc21 [Example 57, 7-(2-Amino-1H-imidazol-5-yl)-1-methyl-3-((4-morpholinephenyl)amino)quinoxaline-2(1H)-one] | 62.9
Cn1c(=O)c(Nc2ccc(C3(O)COC3)cn2)cc2c(F)c(-c3cc[nH]n3)ccc21 [Example 22, 5-Fluoro-3-[[5-(3-hydroxyoxetan-3-yl)pyridin-2-yl]amino]-1-methyl-6-(1H-pyrazol-3-yl)quinoline-2(1H)-one] | 38.5
Cn1c(=O)c(Nc2ccc(N3CCOCC3)cc2)nc2ccc(-c3nccs3)cc21 [Example 32, 1-Methyl-3-((4-morpholinephenyl)amino)-7-(thiazol-2-yl)quinoxaline-2(1H)-one] | 212
CCS(=O)(=O)N1CCN(c2ccc(Nc3nc4ccc(-c5cn[nH]c5)cc4n(C)c3=O)cc2)CC1 [Example 36, 3-((4-(4-(Ethylsulfonyl)piperazin-1-yl)phenyl)amino)-1-methyl-7-(1H-pyrazol-4-yl)quinoxaline-2(1H)-one] | 6.4
Cn1c(=O)c(Nc2ccc(N3CCOCC3)cc2)nc2ccc(-c3cn[nH]c3)c(Cl)c21 [Example 43, 8-Chloro-1-methyl-3-((4-morpholinephenyl)amino)-7-(1H-pyrazol-4-yl)quinoxaline-2(1H)-one] | 116
Cn1c(=O)c(Nc2ccc(N3CCOCC3)nc2)nc2ccc(-c3cn[nH]c3)cc21 [Example 53, 1-Methyl-3-((6-morpholinepyridin-3-yl)amino)-7-(1H-pyrazol-4-yl) quinoxaline-2(1H)one] | 39.3
Cn1c(=O)c(Nc2ccc(N3CCOCC3)cc2F)nc2ccc(-c3cn[nH]c3)cc21 [Example 47, 3-((2-Fluoro-4-morpholinephenyl)amino)-1-methyl-7-(1H-pyrazol-4-yl)quinoxaline-2(1H)-one] | 242
Cn1c(=O)c(Nc2ccc(NC3CCOCC3)nc2)nc2ccc(-c3cn[nH]c3)cc21 [Example 56, 1-Methyl-7-(1H-pyrazol-4-yl)-3-((6-((tetrahydro-2H-pyran-4-yl)amino)pyridin-3-yl)amino)quinoxaline-2(1H)-one] | 29.2
Cn1c(=O)c(Nc2ccc(N3CCOCC3)c(Cl)c2)nc2ccc(-c3cn[nH]c3)cc21 [Example 50, 3-((3-Chloro-4-morpholinephenyl)amino)-1-methyl-7-(1H-pyrazol-4-yl)quinoxaline-2(1H)-one] | 49
Cn1c(=O)c(Nc2ccc(N3CCOCC3)cn2)nc2ccc(-c3cn[nH]c3)cc21 [Example 52, 1-Methyl-3-((5-morpholinepyridin-2-yl)amino)-7-(1H-pyrazol-4-yl)quinoxaline-2(1H)one] | 29.7
Cc1cc(Nc2nc3ccc(-c4cn[nH]c4)cc3n(C)c2=O)ccc1N1CCOCC1 [Example 49] | 22.5
COc1cc(Nc2nc3ccc(-c4cn[nH]c4)cc3n(C)c2=O)ccc1N1CCOCC1 [Example 51, 3-((3-Methoxy-4-morpholinephenyl)amino)-1-methyl-7-(1H-pyrazol-4-yl)quinoxaline-2(1H)one] | 12.9
Cn1c(=O)c(Nc2ccc(N3CCOCC3)cc2)nc2ccc(-c3cnc(N)s3)cc21 [Example 58, 7-(2-Aminothiazol-5-yl)-1-methyl-3-((4-morpholinephenyl)amino)quinoxaline-2(1H)-one] | 197
Cn1c(=O)c(Nc2ccc(N3CCOCC3)cc2)nc2ccc(-c3ccncc3)cc21 [Example 28, 1-Methyl-3-((4-morpholinephenyl)amino)-7-(pyridin-4-yl)quinoxaline-2(1H)-one] | 230
CN1CCN(S(=O)(=O)c2ccc(Nc3nc4ccc(-c5cn[nH]c5)cc4n(C)c3=O)cc2)CC1 [Example 34, 1-Methyl-3-((4-((4-methylpiperazin-1-yl)sulfonyl)phenyl)amino)-7-(1H-pyrazol-4-yl)quinoxaline-2(1H)-one] | 26
Cn1c(=O)c(Nc2ccc(N3CCOCC3)cc2)nc2ccc(-c3cc[nH]n3)cc21 [Example 27, 1-Methyl-3-((4-morpholinephenyl)amino)-7-(1H-pyrazol-3-yl) quinoxaline-2(1H)-one] | 78
C[C@H]1COCCN1c1ccc(Nc2cc3c(F)c(-c4cc[nH]n4)ccc3n(C)c2=O)nc1 [Example 14, (S) 5-fluoro-1-methyl-3-((5-(3-methylmorpholine)pyridin-2-yl)amino)-6-(1H-pyrazol-3-yl)quinoline-2(1H)-one] | 237

test system: AKT phosphorylation; assay: In vitro test of the inhibition effect on AKT phosphorylation (ELISA, Ramos cells); format: cell-based; details: Homo sapiens, Ramos, Ramos cell line, compound 1 hour, goat anti-human IgM 10 ug/ml for 10 minutes, Phospho-AKT 1/2/3 (ser473) ELISA; read-out: Inhibit AKT phosphorylation IC50
Description: Experimental Example 2: In Vitro Test of the Inhibition Effect of the Example Compounds on AKT Phosphorylation
• 2.1 Experimental Purpose: Intracellular protein kinase AKT phosphorylation detected by experiment was measured by enzyme-linked immunosorbent assay (ELISA), and the inhibition of the compound on protein kinase AKT phosphorylation was evaluated by an index of the half-cell inhibition concentration (IC50) value of the compound. • 2.2 Experimental Materials: • Cell line: Ramos cell line • Cell culture medium (RPMI1640, Invitrogen #22400-105; 10% serum Gibco #10099-141; L-glutamine 1×, Gibco #25030-081) • Experimental medium (without serum, RPM11640, Invitrogen #22400-105; L-glutamine 1×, Gibco #25030) • Lysis buffer (trishydroxymethylaminomethane hydrochloride, Invitrogen15567-1000 ml; sodium chloride, domestic; sodium deoxycholate, Sigma30970-25 G; polyethylene glycol octylphenyl ether, SigmaT9284-100 ml; dodecane sodium sulfonate, SigmaL3771; ethylenediaminetetraacetic acid, Invitrogen15575-038-100 ml; ultrapure water, MilliQ) • Protease inhibitor (Roche, 4693159001-30/BOX) • Phosphatase inhibitor mixture 2 (Sigma, P5726-5 ML) • Phosphatase inhibitor mixture 3 (Sigma, P0044-5 ML) • Goat Anti-Human immunoglobulin M (F(ab′)2 Goat Anti-Human IgM) (Jackson Immuno Research-109-006-129) • Phosphorylated AKT assay kit (Phospho-AKT 1/2/3 (ser473)) (TGR Bioscience, EKT002) • 10× Hank's balanced salt solution (Gibco #14065-056) • 96-well cell plate (Greiner #655090) • Compound V-well dilution plate (Axygen #WITP02280) • CO2 incubator (Thermo #371) • Centrifuge (Eppendorf #581 OR) • Vi-cell cell counter (Beckman Coulter) • Pipette (Eppendorf) • Pipette (Greiner) • Pipetting gun (Eppendorf) • Multi-purpose microplate reader (Envision Reader) • 2.3 Experimental procedures and methods: • a) Cell Seeding (Ramos Cells) • 1) The medium was preheated in a 37° C. water bath. Suspended cells and their culture solution were aspirated, centrifuged at 1000 rpm for 5 minutes. • 2) Aspirated the cell culture medium, added 10 mL of pre-warmed medium to the centrifuge tube, blew off the resuspended cells, pipette 1 mL of the cell suspension, and counted with Vi-cell; • 3) The Ramos cells were diluted with a medium to a density of 5×10^6/mL, and the diluted cells were added to a 96-well cell culture plate (100 μL/well) using a lance. Placed the cell plates in a 37° C., 5% CO2 incubator for overnight. • b) Cell starvation: • 1) After cultured the inoculation cells for overnight, centrifuged at 1000 rpm for 5 minutes on the next day, aspirated the original medium by a lance, added serum-free experimental medium, placed the cell plates in a 37° C., 5% CO2 incubator, and starved for overnight. • c) Compound preparation and dosing: • 1) The compound was diluted with dimethyl sulfoxide to give an initial concentration of 5 mM. A triple gradient dilution was done with compound V dilution plate to make 10 concentration points. • 2) Took another new compound V-well dilution plate, added 198 ul of serum-free experimental medium to each well, and then added 2 ul of the diluted compound above to each well, and mixed with a lance. […]

SMILES | IC50 [nM]
Cn1c(=O)c(Nc2ccc(N3CCOCC3)cc2)nc2ccc(-c3csc(N)n3)cc21 [Example 59, 7-(2-Aminothiazol-4-yl)-1-methyl-3-((4-morpholinephenyl)amino)quinoxaline-2(1H)-one] | 248
Cn1c(=O)c(Nc2ccc(C(C)(O)C(F)(F)F)cn2)cc2c(F)c(-c3cc[nH]n3)ccc21 (single isomer, unassigned) [Example 24, 5-Fluoro-1-methyl-6-(1H-pyrazol-3-yl)-3-((5-(1,1,1-trifluoro-2-hydroxypropan-2-yl)pyridine-2-yl)amino)quinoline-2(1H)-one] | 175
Cc1[nH]ncc1-c1ccc2nc(Nc3ccc(N4CCOCC4)cc3)c(=O)n(C)c2c1 [Example 29, 1-Methyl-7-(5-methyl-1H-pyrazol-4-yl)-3-((4-morpholinephenyl)amino)quinoxaline-2(1H)-one] | 233

same assay, conditions: Ramos cell line, compound 1 hour, goat anti-human IgM 10 ug/ml for 10 minutes, Phospho-AKT 1/2/3 (ser473) ELISA; read-out: Inhibit AKT phosphorylation IC50

SMILES | IC50 [nM]
Cn1c(=O)c(Nc2ccc(C(C)(O)C(F)(F)F)cn2)cc2c(F)c(-c3cc[nH]n3)ccc21 (single isomer, unassigned) [Example 25, 5-Fluoro-1-methyl-6-(1H-pyrazol-3-yl)-3-((5-(1,1,1-trifluoro-2-hydroxypropan-2-yl)pyridine-2-yl)amino)quinoline-2(1H)-one] | 121
